How the values were obtained:
[1] = molecular target: T1, Peroxisome proliferator-activated receptor alpha (Homo sapiens, UniProt Q07869); test: Agonist activity at PPARalpha (unknown origin) incubated for 3 to 16 hrs by pathhunter nuclear hormone receptor assay
T1 sequence (Q07869 whole entry): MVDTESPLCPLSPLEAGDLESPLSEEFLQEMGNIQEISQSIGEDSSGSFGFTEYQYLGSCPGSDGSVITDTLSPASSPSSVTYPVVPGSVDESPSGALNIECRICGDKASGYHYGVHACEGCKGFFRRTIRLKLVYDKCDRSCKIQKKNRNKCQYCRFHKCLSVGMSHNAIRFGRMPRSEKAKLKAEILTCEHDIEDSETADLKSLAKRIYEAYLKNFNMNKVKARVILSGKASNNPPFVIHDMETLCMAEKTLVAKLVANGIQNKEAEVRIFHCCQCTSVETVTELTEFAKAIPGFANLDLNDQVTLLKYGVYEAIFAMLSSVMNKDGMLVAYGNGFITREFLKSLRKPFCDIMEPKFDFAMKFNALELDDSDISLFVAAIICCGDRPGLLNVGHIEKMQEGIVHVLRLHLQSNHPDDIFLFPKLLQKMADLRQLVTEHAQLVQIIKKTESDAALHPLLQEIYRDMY

[2] = molecular target: T2, Peroxisome proliferator-activated receptor delta (Homo sapiens, UniProt Q03181); test: Agonist activity at PPARbeta (unknown origin) incubated for 3 to 16 hrs by pathhunter nuclear hormone receptor assay
T2 sequence (Q03181 whole entry): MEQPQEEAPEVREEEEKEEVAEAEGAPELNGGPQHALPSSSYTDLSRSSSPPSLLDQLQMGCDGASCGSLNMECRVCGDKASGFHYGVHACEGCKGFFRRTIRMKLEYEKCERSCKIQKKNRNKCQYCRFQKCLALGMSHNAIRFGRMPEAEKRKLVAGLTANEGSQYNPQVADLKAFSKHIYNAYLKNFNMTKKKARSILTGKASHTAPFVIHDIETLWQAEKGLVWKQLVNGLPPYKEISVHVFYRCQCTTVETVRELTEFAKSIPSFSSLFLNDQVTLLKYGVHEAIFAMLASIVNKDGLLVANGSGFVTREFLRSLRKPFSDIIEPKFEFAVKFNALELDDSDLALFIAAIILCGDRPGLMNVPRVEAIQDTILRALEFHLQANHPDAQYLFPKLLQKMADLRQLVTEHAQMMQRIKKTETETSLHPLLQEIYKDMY

[3] = molecular target: T3, Peroxisome proliferator-activated receptor alpha (Homo sapiens) (UniProt Q07869); test: Agonist activity at PPARalpha (unknown origin) incubated for 3 to 16 hrs by pathhunter nuclear hormone receptor assay relative to GW7647; parameters: concentration or dose not given beside the values
T3 sequence (whole entry): T1 sequence (Q07869 whole entry)

[4] = molecular target: T4, Peroxisome proliferator-activated receptor delta (Homo sapiens) (UniProt Q03181); test: Agonist activity at PPARbeta (unknown origin) incubated for 3 to 16 hrs by pathhunter nuclear hormone receptor assay relative to L-165,041
T4 sequence (whole entry): T2 sequence (Q03181 whole entry)

[5] = molecular target: T5, Peroxisome proliferator-activated receptor gamma (Homo sapiens) (UniProt P37231); test: Agonist activity at PPARgamma (unknown origin) incubated for 3 to 16 hrs by pathhunter nuclear hormone receptor assay relative to Troglitazone
T5 sequence (whole entry): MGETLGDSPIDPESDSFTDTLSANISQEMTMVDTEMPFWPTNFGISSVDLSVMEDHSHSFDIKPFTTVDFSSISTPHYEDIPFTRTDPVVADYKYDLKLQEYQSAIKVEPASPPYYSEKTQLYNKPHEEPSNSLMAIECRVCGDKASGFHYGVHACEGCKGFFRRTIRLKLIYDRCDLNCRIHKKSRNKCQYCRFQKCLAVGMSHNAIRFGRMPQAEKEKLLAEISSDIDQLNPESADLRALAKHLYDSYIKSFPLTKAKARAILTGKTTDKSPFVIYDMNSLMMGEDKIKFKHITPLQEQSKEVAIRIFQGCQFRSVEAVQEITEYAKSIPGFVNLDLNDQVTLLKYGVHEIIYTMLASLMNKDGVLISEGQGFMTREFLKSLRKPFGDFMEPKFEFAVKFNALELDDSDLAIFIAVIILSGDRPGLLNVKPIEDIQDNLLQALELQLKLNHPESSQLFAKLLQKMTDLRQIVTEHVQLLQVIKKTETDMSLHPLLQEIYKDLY

[6] = Stability in human plasma assessed as remaining compound incubated for 2 hrs; type: ADME, cell-free; settings: read-out: Stability
[7] = Stability in rat plasma assessed as remaining compound incubated for 2 hrs; type: ADME, cell-free; settings: read-out: Stability
[8] = Protein binding in rat plasma at 2 uM incubated for 4 hrs by LC-MS/MS analysis; type: ADME, cell-free
[9] = Efflux ratio of apparent permeability across basolateral to apical over apical to basolateral side in human Caco2 cells at 2 uM incubated for 120 mins by LC-MS/MS analysis; type: ADME, cell-based; settings: Caco-2
[10] = molecular target: Cytochrome P450 2D6 (Homo sapiens, UniProt P10635); test: Inhibition of CYP2D6 in human liver microsomes using dextromethorphan as substrate incubated for 10 mins followed by substrate addition further incubated for 10 mins by LC-MS/MS analysis; type: ADME
[11] = molecular target: Cytochrome P450 3A4 (Homo sapiens, UniProt P08684); test: Inhibition of CYP3A4 in human liver microsomes using midazolam as substrate incubated for 10 mins followed by substrate addition further incubated for 10 mins by LC-MS/MS analysis; type: ADME
[12] = Volume of distribution at steady state in C57BL/6J mouse at 1 mg/kg, iv measured upto 24 hrs by LC-MS/MS analysis; type: ADME, organism-based; settings: in vivo, read-out: Vdss
[13] = Cmax in C57BL/6J mouse at 10 mg/kg, po measured upto 24 hrs by LC-MS/MS analysis; type: ADME, organism-based; parameters: dose 10 mg/kg, route oral; settings: in vivo
[14] = Tmax in C57BL/6J mouse at 10 mg/kg, po measured upto 24 hrs by LC-MS/MS analysis; type: ADME, organism-based; settings: in vivo
[15] = Volume of distribution at steady state in Sprague-Dawley rat at 1 mg/kg, iv measured upto 24 hrs by LC-MS/MS analysis; type: ADME, organism-based; settings: in vivo, read-out: Vdss
[16] = Clearance in Sprague-Dawley rat at 1 mg/kg, iv measured upto 24 hrs by LC-MS/MS analysis; type: ADME, organism-based; settings: in vivo
[17] = AUC (0 to last) in Sprague-Dawley rat at 1 mg/kg, iv measured upto 24 hrs by LC-MS/MS analysis; type: ADME, organism-based; parameters: dose 1 mg/kg, route intravenous, time 0 - last; settings: in vivo
[18] = AUC (0 to last) in Sprague-Dawley rat at 10 mg/kg, po measured upto 24 hrs by LC-MS/MS analysis; type: ADME, organism-based; parameters: dose 10 mg/kg, route oral, time 0 - last; settings: in vivo
[19] = Cmax in Sprague-Dawley rat at 10 mg/kg, po measured upto 24 hrs by LC-MS/MS analysis; type: ADME, organism-based; parameters: dose 10 mg/kg, route oral; settings: in vivo
[20] = Tmax in Sprague-Dawley rat at 10 mg/kg, po measured upto 24 hrs by LC-MS/MS analysis; type: ADME, organism-based; settings: in vivo
[21] = system: Rattus norvegicus; test: Hepatoprotective activity in Sprague-Dawley rat assessed as reduction in ANIT-stimulated inflammatory score at 3 mg/kg, ig administered for 8 days by hematoxylin and eosin staining based mopho-metric analysis relative to control; type: functional; parameters: scale not given: the % may be the effect or the level left
[22] = Oral bioavailability in C57BL/6J mouse at 10 mg/kg upto 24 hrs by LC-MS/MS analysis; settings: in vivo
[23] = Oral bioavailability in Sprague-Dawley rat at 10 mg/kg measured upto 24 hrs by LC-MS/MS analysis; settings: in vivo

Sequence of Cytochrome P450 2D6 (P10635 whole entry): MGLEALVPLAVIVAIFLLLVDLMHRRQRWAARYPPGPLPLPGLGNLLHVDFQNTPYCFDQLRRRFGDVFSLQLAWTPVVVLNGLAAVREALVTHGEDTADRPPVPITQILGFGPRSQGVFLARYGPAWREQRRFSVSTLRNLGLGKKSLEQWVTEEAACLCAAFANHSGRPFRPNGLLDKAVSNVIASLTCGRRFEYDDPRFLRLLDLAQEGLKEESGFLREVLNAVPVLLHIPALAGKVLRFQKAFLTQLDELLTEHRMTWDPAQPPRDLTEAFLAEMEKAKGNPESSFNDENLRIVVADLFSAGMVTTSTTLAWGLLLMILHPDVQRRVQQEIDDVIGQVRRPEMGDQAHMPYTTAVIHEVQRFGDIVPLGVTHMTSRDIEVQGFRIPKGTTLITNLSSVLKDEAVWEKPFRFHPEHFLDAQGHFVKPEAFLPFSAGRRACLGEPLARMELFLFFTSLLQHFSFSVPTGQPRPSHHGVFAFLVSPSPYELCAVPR
Sequence of Cytochrome P450 3A4 (P08684 whole entry): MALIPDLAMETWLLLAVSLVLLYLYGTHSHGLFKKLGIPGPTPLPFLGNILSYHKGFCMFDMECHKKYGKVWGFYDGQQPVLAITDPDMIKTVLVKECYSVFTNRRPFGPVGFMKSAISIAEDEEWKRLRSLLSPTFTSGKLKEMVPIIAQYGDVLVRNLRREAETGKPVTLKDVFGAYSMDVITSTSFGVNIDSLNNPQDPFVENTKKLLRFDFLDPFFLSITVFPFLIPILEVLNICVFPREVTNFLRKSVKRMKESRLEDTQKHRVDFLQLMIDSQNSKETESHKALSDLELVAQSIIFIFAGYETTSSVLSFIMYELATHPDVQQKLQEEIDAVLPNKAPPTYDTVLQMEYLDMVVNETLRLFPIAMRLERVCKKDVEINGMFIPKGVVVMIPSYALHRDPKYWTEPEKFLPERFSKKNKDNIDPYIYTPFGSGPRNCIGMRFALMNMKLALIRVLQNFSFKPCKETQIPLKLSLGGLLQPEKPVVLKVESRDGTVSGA

Q: Which results are given for `Cc1cc(Cc2cc(-c3ccc(Br)cc3)on2)cc(C)c1OC(C)(C)C(=O)O`?
A: EC50 [1]: 8 nM; EC50 [2]: 5 nM; Activity [3]: 92%; Activity [4]: 79%; Activity [5]: 110%; remaining at 2 h [6]: 88%; remaining at 2 h [7]: 96%; fraction unbound at 4 h, 2 µM [8]: < 0.001; efflux ratio at 2 h, 2 µM [9]: 0.4; IC50 [10]: > 50000 nM; IC50 [11]: > 50000 nM; Vd [12]: 0.53 L/kg; Cmax [13]: 52 µM; Tmax [14]: 19.8 min; Vd [15]: 0.16 L/kg; clearance [16]: 0.35 mL/min/kg; AUC(0-t) at 24 h [17]: 105 µM·h; AUC(0-t) at 24 h [18]: 561 µM·h; Cmax [19]: 65.3 µM; Tmax [20]: 79.8 min; Activity [21]: 30%; bioavailability [22]: 59.8%; bioavailability [23]: 53.3%

Reference: ChEMBL document CHEMBL4304783, “Discovery of a Novel Selective Dual Peroxisome Proliferator-Activated Receptor α/δ Agonist for the Treatment of Primary Biliary Cirrhosis” (ACS Med Chem Lett, 2019)
